Results published in US10907212B2, “Inhibitors of cell adhesion” (Regents of the University of Minnesota, priority 2016, dated 2021).
Where no end group is shown, it is not given here.

Legend:
[1] = system: nectin 4 protein on NIH:OVCAR-5 cells; test: Effect of peptides on anti-Nectin-4 antibody binding to cells as determined by flow cytometry; assay type: cell-based, human; settings: for IgG MFI: IgG control primary antibody; for nectin-4 antibody binding compared to untreated control cells (in words): flow cytometry; for Flow binding: summary table, Nectin-4 antibody binding relative to control = 100
Method: Confluent monolayers of cells were detached from 75 cm^2 tissue culture flasks using Accutase cell dissociation buffer (Innovative Cell Technologies, San Diego, Calif.), washed, and labeled with mouse IgG or mAbs against Nectin-4 or Nectin-1 (2.5 μg/10^6 cells) in Flow Buffer [phosphate buffered saline (PBS) containing 2.5% newborn calf serum and 0.02% sodium azide] for 30 min at 4° C.. Cells were washed and incubated with goat anti-mouse IgG F(ab′)2 (Jackson ImmunoResearch, West Grove, Pa.), then washed again and incubated with streptavidin-allophycocyanin conjugate (Jackson ImmunoResearch, West Grove, Pa.) for 30 min each. Cells were washed and fixed in Flow Buffer containing 1% formaldehyde and analyzed in the University of Minnesota Flow Cytometry Resource with a BD Accuri™ C6 flow cytometer (BD Biosciences, San Jose, Calif.) using the Accuri™ software.
Briefly, NIH:OVCAR-5 cells that natively express a moderate amount of nectin 4 protein were incubated for 30 minutes in 150 μg/mL of soluble peptide in DMSO. After incubation, the cells were washed, and then triple antibody stained using mouse anti-nectin 4 (or IgG control) primary antibody, biotinylated goat anti-mouse secondary antibody, and streptavidin APC tertiary antibody. Finally, utilizing the University of Minnesota flow core's Accuri C6 flow cytometer, the relative antibody binding affinity for control and peptide-treated samples was quantitated and compared. Data was collected for each of the 57 peptides generated.

[2] = system: ovarian cancer cell aggregation and spheroid formation; test: Spheroid assay for peptides (visual scale +1 to +5); assay type: cell-based, human; settings: visual scale of +1 to +5
Method: Spheroids were formed from the NIH:OVCAR5 cell lines described above using the liquid overlay method. One milliliter of a single cell suspension was seeded at a concentration of 50,000 cells/ml in OptiMEM® media, into 24-well tissue culture plates coated with 0.5% Seakem agarose (in complete RPMI-1640). Plates were incubated at 37° C. in a humidified incubator with 5% CO2. At various time points up to 5 days, the plates were removed from the incubator and the spheroids were photographed with a Nikon CoolPix digital camera mounted on an Olympus CK2 inverted microscope with a 4× objective. The size of the spheroids was determined using the measure tool in Adobe Photoshop. The largest spheroids were quantified (20-90 spheroids/well), in a minimum of 8 wells, for a total of >300 spheroids per cell type.
The clinical relevance is that by blocking the formation of spheroids, the cells will be more sensitive to chemotherapy (which targets the single cells that proliferate more rapidly than spheroids).
The spheroid assay for peptides 1-30 were scored using a visual scale of +1 to +5. The controls were scored at +2 (24 hrs) and +4 (48 hrs). […] It may be harder to visually assess the size at 24 hours, since the spheroids are relatively small, but and perhaps some of the peptides are affecting cell division, and that is why the spheroids are smaller than the controls at 48 hours, but not 24 hrs (this can be easily assayed with an MTT assay).

[3] = Run Four, 150 μg/mL peptide, 30 minutes, Control 4 = 9,631.58
[4] = Run Four, Control 4 = 9.387504873
[5] = Run Four, antibody binding relative to Control 4 = 100
[6] = Run Five, 150 μg/mL peptide, 30 minutes, Control 5 = 17,768.90
[7] = Run Five, Control 5 = 2.142155332
[8] = Run Five, antibody binding relative to Control 5 = 100
[9] = Run Three, 150 μg/mL peptide, 30 minutes, Control 3 = 13,070.20
[10] = Run Three, antibody binding relative to Control 3 = 100.00
[11] = Run One, 150 μg/mL peptide, 30 minutes, Control 1 = 15,015
[12] = Run One, 150 μg/mL peptide, 30 minutes, Control 1 = 1,670
[13] = Run One, antibody binding relative to Control 1 = 100.00

ACIVNYHMDRFKES-NH2 (listed as Homo sapiens) [Peptide 46]
N4 MFI [1, 3]: 10,569.90 | N4 MFI/IgG MFI [1, 4]: 6.623 | IgG MFI ([1]; Run Four, Control 4 = 1,026): 1596 | nectin-4 antibody binding, percent of control [1, 5]: 104.3

TNPIGTRSGQVEVN-NH2 (listed as Homo sapiens) [Peptide 54]
N4 MFI [1, 6]: 19,706.27 | N4 MFI/IgG MFI [1, 7]: 2.253 | IgG MFI ([1]; Run Five, Control 5 = 8,294.87): 8,747.26 | nectin-4 antibody binding, percent of control [1, 8]: 115.7

CKADANPPATEYHWT-NH2 (listed as Homo sapiens) [Peptide 50]
N4 MFI [1, 3]: 11,341.38 | N4 MFI/IgG MFI [1, 4]: 4.306 | IgG MFI ([1]; Run Four, Control 4 = 1,026): 2634 | nectin-4 antibody binding, percent of control [1, 5]: 101.2

WTTLNGSLPKGVEA-NH2 (listed as Homo sapiens) [Peptide 51]
N4 MFI [1, 6]: 14,202.55 | N4 MFI/IgG MFI [1, 7]: 1.539 | IgG MFI ([1]; Run Five, Control 5 = 8,294.87): 9,230.44 | nectin-4 antibody binding, percent of control [1, 8]: 52.48 | nectin-4 antibody binding compared to untreated control cells (in words) ([1]; 150 μg/mL peptide): reduction in nectin-4 antibody binding | Flow binding [1]: 53%

GFIGTDVVLHCSFA-NH2 (listed as Homo sapiens) [Peptide 31]
N4 MFI [1, 9]: 15,498.21 | N4 MFI/IgG MFI ([1]; Run Three, Control 3 = 9.83): 8.83 | IgG MFI ([1]; Run Three, Control 3 = 1330): 1756 | nectin-4 antibody binding, percent of control [1, 10]: 117.05 | nectin-4 antibody binding compared to untreated control cells (in words) ([1]; 150 μg/mL peptide): increased nectin-4 antibody binding | Flow binding [1]: 117%

GQGLTLAASCTAEG-NH2 (listed as Homo sapiens) [Peptide 12]
N4 MFI [1, 11]: 11,052 | IgG MFI [1, 12]: 2,827 | N4 MFI/IgG MFI ([1]; Run One, Control 1 = 8.99): 3.91 | nectin-4 antibody binding, percent of control [1, 13]: 61.63

LSRLELEDEGVYIC-NH2 (listed as Homo sapiens) [Peptide 37]
N4 MFI [1, 9]: 46,393.69 | N4 MFI/IgG MFI ([1]; Run Three, Control 3 = 9.83): 11.38 | IgG MFI ([1]; Run Three, Control 3 = 1330): 4078 | nectin-4 antibody binding, percent of control [1, 10]: 360.43

NVAIYNPSMGVSVL-NH2 (listed as Homo sapiens) [Peptide 34]
N4 MFI [1, 9]: 14,542.93 | N4 MFI/IgG MFI ([1]; Run Three, Control 3 = 9.83): 9.77 | IgG MFI ([1]; Run Three, Control 3 = 1330): 1489 | nectin-4 antibody binding, percent of control [1, 10]: 111.19 | nectin-4 antibody binding compared to untreated control cells (in words) ([1]; 150 μg/mL peptide): increased nectin-4 antibody binding | Flow binding [1]: 112%

ESQLNLTVMAKPTN-NH2 (listed as Homo sapiens) [Peptide 39]
N4 MFI [1, 9]: 8,719.33 | N4 MFI/IgG MFI ([1]; Run Three, Control 3 = 9.83): 4.24 | IgG MFI ([1]; Run Three, Control 3 = 1330): 2056 | nectin-4 antibody binding, percent of control [1, 10]: 56.76 | nectin-4 antibody binding compared to untreated control cells (in words) ([1]; 150 μg/mL peptide): reduction in nectin-4 antibody binding | Flow binding [1]: 57%

QRITHILHVSFLAE-NH2 (listed as Homo sapiens) [Peptide 18]
Spheroid-24 ([2]; 24 hrs, Control = 2): 3 | Spheroid-48 ([2]; 48 hrs, Control = 4): 5

TNWIEGTQAVLRAKKGQ-NH2 (listed as Homo sapiens) [Peptide 40]
N4 MFI [1, 9]: 10,121.20 | N4 MFI/IgG MFI ([1]; Run Three, Control 3 = 9.83): 7.11 | IgG MFI ([1]; Run Three, Control 3 = 1330): 1423 | nectin-4 antibody binding, percent of control [1, 10]: 74.09

NGKPPSVVSWETRL-NH2 (listed as Homo sapiens) [Peptide 42]
N4 MFI [1, 3]: 9,416.50 | N4 MFI/IgG MFI [1, 4]: 7.497 | IgG MFI ([1]; Run Four, Control 4 = 1,026): 1256 | nectin-4 antibody binding, percent of control [1, 5]: 94.83

PAGELETSDVVTVV-NH2 (listed as Homo sapiens) [Peptide 1]
N4 MFI [1, 11]: 2,085 | IgG MFI [1, 12]: 1,529 | N4 MFI/IgG MFI ([1]; Run One, Control 1 = 8.99): 1.36 | nectin-4 antibody binding, percent of control [1, 13]: 4.17 | nectin-4 antibody binding compared to untreated control cells (in words) ([1]; 150 μg/mL peptide): reduction in nectin-4 antibody binding
